Target: T1, NgBR/hCIT complex (hcisPT) (Homo sapiens, UniProt Q86SQ9+Q96E22)
T1 construct: gene DHDDS; full-length; N-terminal Strep-tag on hCIT, internal 6-His tag after Gly31 of NgBR; bicistronic vector in Expi293F
T1 sequence (Q86SQ9 1-333): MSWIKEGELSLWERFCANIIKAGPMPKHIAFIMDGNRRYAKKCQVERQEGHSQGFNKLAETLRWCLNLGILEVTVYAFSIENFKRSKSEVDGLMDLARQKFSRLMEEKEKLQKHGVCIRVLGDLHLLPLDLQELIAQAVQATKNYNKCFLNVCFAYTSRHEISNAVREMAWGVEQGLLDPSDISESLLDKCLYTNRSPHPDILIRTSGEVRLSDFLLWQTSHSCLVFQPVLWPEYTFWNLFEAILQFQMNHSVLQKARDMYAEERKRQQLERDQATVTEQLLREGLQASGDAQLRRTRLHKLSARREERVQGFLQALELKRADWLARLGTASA
T1 sequence (Q96E22 1-293): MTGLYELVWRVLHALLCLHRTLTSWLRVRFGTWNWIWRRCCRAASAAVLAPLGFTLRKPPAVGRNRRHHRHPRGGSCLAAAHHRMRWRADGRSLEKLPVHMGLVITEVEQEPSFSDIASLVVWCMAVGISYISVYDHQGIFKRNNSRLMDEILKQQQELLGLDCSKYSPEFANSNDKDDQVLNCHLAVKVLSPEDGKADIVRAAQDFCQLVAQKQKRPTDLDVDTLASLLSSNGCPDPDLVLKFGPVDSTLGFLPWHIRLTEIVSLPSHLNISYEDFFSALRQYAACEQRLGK
Experiment: […]-IPP incorporation, Michaelis-Menten fit
Type: biochemical
Details: 50 mM Tris-HCl pH 8, 1 mM MgCl2, 1% phosphatidylinositol, 37 C

CC(C)=CCC/C(C)=C/CC/C(C)=C/COP(=O)(O)OP(=O)(O)O [FPP]
Km (100 uM IPP, 0.1-50 uM FPP): steady state kinetic parameters were measured for complexes containing the WT subunits, hCIT/NgBR

C=C(C)CCOP(=O)(O)OP(=O)(O)O [IPP]
Km (50 uM FPP, 0.1-400 uM IPP, labelled compound): steady state kinetic parameters were measured for complexes containing the WT subunits, hCIT/NgBR

— doi:10.1101/139675v1, “Purification of the mammalian NgBR/hCIT cis-prenyltransferase complex: Identification of a conserved carboxyterminal RxG motif crucial for enzymatic activity” (biorxiv, 2017)
